Data published in patent US8242166B2, “C(10) ethyl ester and C(10) cyclopropyl ester substituted taxanes” (Florida State University Research Foundation, Inc., priority 2008, dated 2012).
Where two headings read alike, the source gives them in different places.

Tests used:
SKMES lung tumors = test: SKMES xenograft study, i.v. single dose (Example 20); assay type: in vivo, nude mice; conditions: 30 mg/kg iv qd × 1
Description: This study was conducted at PRC as previously described. SKMES is a human lung cancer cell line. In the present study, compound 2 and all agents were administered as i.v. monotherapies in a single 30 mg/kg dose (qd×1). […] Control mice received this vehicle qd×1. […] The endpoint volume for tumor growth was 1,500 mm^3. The study was terminated on Day 23.

[1] = tested on: human HT29 colon carcinoma xenografts
[2] = tested on: HT29 human tumor xenografts; test: HT29 xenograft study e133 (Example 24); assay type: in vivo, nude mice
Description: […]. Control mice received the 5% E 95% L-II vehicle q4d×4. A positive reference group received i.v. therapy with compound 2, at 30 mg/kg once weekly for three weeks (q7d×3), in a vehicle of 7.5% ethanol and 7.5% Tween® 80 in 5% dextrose in water. […] The endpoint volume for tumor growth was 1,000 mm^3. […].

[3] = tested on: MX1 human tumor xenografts; test: MX1 xenograft study e220, i.v. q4d×4 (Example 18); conditions: for maximum group mean BW loss: on D19
[4] = tested on: human SKMES lung carcinoma xenografts; test: SKMES xenograft study e82, i.v. q4d×4 (Example 21); assay type: in vivo, nude mice; conditions: 30 mg/kg i.v. q4d×4; five mice

CC(=O)O[C@@]12CO[C@@H]1C[C@H](O)[C@@]1(C)C(=O)[C@H](O)C3=C(C)[C@@H](OC(=O)[C@H](O)[C@@H](NC(=O)OC(C)(C)C)c4ccccc4)C[C@@](O)([C@@H](OC(=O)c4ccccc4)[C@H]21)C3(C)C [Docetaxel, docetaxel, reference compound]
% TGD (SKMES lung tumors): 61.94% | MTV (n), Day 23 (SKMES lung tumors): 166.75 (4) mm^3 | Median TTE (SKMES lung tumors): 23 days | T-C (SKMES lung tumors): 8.8 days | CR (complete regression) (SKMES lung tumors; n=5): 0 | NTR NTRm (SKMES lung tumors; n=5): 0 | PR (partial regression) (SKMES lung tumors; n=5): 2 | TFS (tumor-free survivor) (SKMES lung tumors; n=5): 0 | TR (treatment-related death) (SKMES lung tumors; n=5): 0 | LTTFS ([1]; 25 mg/kg q7d×3, six mice): one | PR responses ([1]; 25 mg/kg q7d×3, six mice): 4 | Number of Death NTR ([1]; mouse, in vivo): 0 | Number of Death TR ([1]; mouse, in vivo): 0 | # Death NTR ([2]; 30 mg/kg iv Q7d × 3, n=6): 0 | # Death TR ([2]; 30 mg/kg iv Q7d × 3, n=6): 0 | % TGD ([3]; 25 mg/kg iv qwk × 3): 217.17% | BW Nadir ([3]; 25 mg/kg iv qwk × 3): −10.9% (22) | MTV (n), Day 57 ([3]; 25 mg/kg iv qwk × 3): 0.00 (5) mm^3 | Median TTE ([3]; 25 mg/kg iv qwk × 3): 57 days | T-C ([3]; 25 mg/kg iv qwk × 3): 39.03 days | CR (complete regression) ([3]; 25 mg/kg iv qwk × 3, n=5): 5 | NTR (non-treatment-related death) ([3]; 25 mg/kg iv qwk × 3, n=5): 0 | PR (partial regression) ([3]; 25 mg/kg iv qwk × 3, n=5): 0 | TFS (tumor-free survivor) ([3]; 25 mg/kg iv qwk × 3, n=5): 5 | TR (treatment-related death) ([3]; 25 mg/kg iv qwk × 3, n=5): 0

CCC(=O)O[C@H]1C(=O)[C@@]2(C)C([C@H](OC(=O)c3ccccc3)[C@]3(O)C[C@H](OC(=O)[C@H](O)[C@@H](NC(=O)OC4CCC4)c4cccs4)C(C)=C1C3(C)C)[C@]1(OC(C)=O)CO[C@@H]1C[C@@H]2O (stereo partly shown) [Compound 19244]
TFS [4]: 3 | partial response [4]: two | % TGD (SKMES lung tumors): 61.94% | MTV (n), Day 23 (SKMES lung tumors): 352.00 (5) mm^3 | Median TTE (SKMES lung tumors): 23 days | T-C (SKMES lung tumors): 8.8 days | NTR NTRm (SKMES lung tumors; n=5): 0 | PR (partial regression) (SKMES lung tumors; n=5): 0 | TFS (tumor-free survivor) (SKMES lung tumors; n=5): 1 | TR (treatment-related death) (SKMES lung tumors; n=5): 0 | LTTFS ([1]; 30 mg/kg i.v. q4d×4, six mice): 1 | regression responses ([1]; 30 mg/kg i.v. q4d×4, six mice): six | MTV ([2]; 30 mg/kg i.v. q4d×4): 0 | TGD ([2]; 30 mg/kg i.v. q4d×4): 172% | 55-day survivors ([2]; 30 mg/kg i.v. q4d×4, six mice): five | Max. % BW Loss; Day ([2]; 30 mg/kg iv Q4d × 4): −17.3%; Day 17 | # Death NTR ([2]; 30 mg/kg iv Q4d × 4, n=6): 0 | % TGD ([3]; 7.5 mg/kg iv q4d × 4): 217.17% | BW Nadir ([3]; 7.5 mg/kg iv q4d × 4): −3.1% (19) | MTV (n), Day 57 ([3]; 7.5 mg/kg iv q4d × 4): 0.00 (5) mm^3 | Median TTE ([3]; 7.5 mg/kg iv q4d × 4): 57 days | T-C ([3]; 7.5 mg/kg iv q4d × 4): 39.03 days | CR (complete regression) ([3]; 7.5 mg/kg iv q4d × 4, n=5): 5 | NTR (non-treatment-related death) ([3]; 7.5 mg/kg iv q4d × 4, n=5): 0 | PR (partial regression) ([3]; 7.5 mg/kg iv q4d × 4, n=5): 0 | TFS (tumor-free survivor) ([3]; 7.5 mg/kg iv q4d × 4, n=5): 3 | TR (treatment-related death) ([3]; 7.5 mg/kg iv q4d × 4, n=5): 0 | transient CRs ([3]; 7.5 mg/kg iv q4d × 4, n=5): 2 | maximum group mean BW loss ([3]; 7.5 mg/kg iv q4d × 4): 3.1% | % TGD ([3]; 15 mg/kg iv q4d × 4): 217.17% | BW Nadir ([3]; 15 mg/kg iv q4d × 4): −7.6% (19) | MTV (n), Day 57 ([3]; 15 mg/kg iv q4d × 4): 0.00 (5) mm^3 | Median TTE ([3]; 15 mg/kg iv q4d × 4): 57 days | T-C ([3]; 15 mg/kg iv q4d × 4): 39.03 days | CR (complete regression) ([3]; 15 mg/kg iv q4d × 4, n=5): 5 | NTR (non-treatment-related death) ([3]; 15 mg/kg iv q4d × 4, n=5): 0 | PR (partial regression) ([3]; 15 mg/kg iv q4d × 4, n=5): 0 | TFS (tumor-free survivor) ([3]; 15 mg/kg iv q4d × 4, n=5): 5 | TR (treatment-related death) ([3]; 15 mg/kg iv q4d × 4, n=5): 0 | maximum group mean BW loss ([3]; 15 mg/kg iv q4d × 4): 7.6% | % TGD ([3]; 30 mg/kg iv q4d × 4): 217.17% | BW Nadir ([3]; 30 mg/kg iv q4d × 4): −18.9% (19) | MTV (n), Day 57 ([3]; 30 mg/kg iv q4d × 4): 0.00 (5) mm^3 | Median TTE ([3]; 30 mg/kg iv q4d × 4): 57 days | T-C ([3]; 30 mg/kg iv q4d × 4): 39.03 days | CR (complete regression) ([3]; 30 mg/kg iv q4d × 4, n=5): 4 | NTR (non-treatment-related death) ([3]; 30 mg/kg iv q4d × 4, n=5): 0 | PR (partial regression) ([3]; 30 mg/kg iv q4d × 4, n=5): 1 | TFS (tumor-free survivor) ([3]; 30 mg/kg iv q4d × 4, n=5): 4 | TR (treatment-related death) ([3]; 30 mg/kg iv q4d × 4, n=5): 0 | maximum group mean BW loss ([3]; 30 mg/kg iv q4d × 4): 18.9%
